Experimental data taken from ChEMBL document CHEMBL1153372, “A selective matrix metalloprotease 12 inhibitor for potential treatment of chronic obstructive pulmonary disease (COPD): discovery of (S)-2-(8-(methoxycarbonylamino)dibenzo[b,d]furan-3-sulfonamido)-3-methylbutanoic acid (MMP408)” (J Med Chem, 2009).

How the values were obtained:
Collagenase 3 = Collagenase 3 (Homo sapiens, UniProt P45452); assay: Inhibition of human recombinant MMP13 expressed in Escherichia coli
[1] = Oral bioavailability in C57BL/6 mouse at 30 mg/kg; type: ADME, organism-based; settings: in vivo
[2] = AUC in C57BL/6 mouse at 30 mg/kg, po; type: ADME, organism-based; design: dose 30 mg/kg, route oral; settings: plasma
[3] = Cmax in C57BL/6 mouse at 30 mg/kg, po; type: ADME, organism-based; design: dose 30 mg/kg, route oral; settings: in vivo
[4] = Clearance in C57BL/6 mouse at 2 mg/kg, iv; type: ADME, organism-based; design: dose 2 mg/kg, route intravenous; settings: in vivo
[5] = Half life in C57BL/6 mouse at 30 mg/kg, po; type: ADME, organism-based; design: dose 30 mg/kg, route oral; settings: in vivo
[6] = Volume of distribution at steady state in C57BL/6 mouse at 2 mg/kg, iv; type: ADME, organism-based; design: dose 2 mg/kg, route intravenous; settings: in vivo, read-out: Vdss

SMILES	IC50 (Collagenase 3) [nM]	also measured
CC(C)[C@@H](NS(=O)(=O)c1ccc2oc3ccccc3c2c1)C(=O)O	2500	–
COC(=O)Nc1cc2oc3ccc(S(=O)(=O)N[C@@H](C(=O)O)C(C)C)cc3c2cc1Br	25400	–
CC(C)[C@@H](NS(=O)(=O)c1ccc2oc3cc(NS(=O)(=O)c4ccccc4)ccc3c2c1)C(=O)O	6000	–
CC(C)[C@H](NS(=O)(=O)c1ccc2c(c1)oc1ccc(NS(C)(=O)=O)cc12)C(=O)O	93	–
CC(C)[C@@H](NS(=O)(=O)c1ccc2oc3cc(NS(=O)(=O)C(C)C)ccc3c2c1)C(=O)O	120	–
Cc1noc(C)c1S(=O)(=O)Nc1ccc2c(c1)oc1ccc(S(=O)(=O)N[C@@H](C(=O)O)C(C)C)cc12	34000	–
COC(=O)Nc1ccc2c(c1)oc1ccc(S(=O)(=O)N[C@@H](C(=O)O)C(C)C)cc12	500	bioavailability [1]: 36%; AUC [2]: 21700 ng·h/mL; Cmax [3]: 10600 ng/mL; clearance [4]: 8.3 mL/min/kg; half-life [5]: 2.7 h; Vd [6]: 1.6 L/kg
CCCOC(=O)Nc1ccc2c(c1)oc1ccc(S(=O)(=O)N[C@@H](C(=O)O)C(C)C)cc12	109	–
CC(C)OC(=O)Nc1ccc2c(c1)oc1ccc(S(=O)(=O)N[C@@H](C(=O)O)C(C)C)cc12	500	–
CC(C)[C@@H](NS(=O)(=O)c1ccc2oc3cc(NS(C)(=O)=O)ccc3c2c1)C(=O)O	–	bioavailability [1]: 7%; AUC [2]: 245 ng·h/mL; Cmax [3]: 103 ng/mL; clearance [4]: 141 mL/min/kg; half-life [5]: 2 h; Vd [6]: 1.9 L/kg
CC(C)[C@H](NS(=O)(=O)c1ccc2c(c1)oc1ccc(NS(=O)(=O)CC(F)(F)F)cc12)C(=O)O	670	–
CC(C)[C@@H](NS(=O)(=O)c1ccc2oc3cc(NC(=O)Oc4ccccc4)ccc3c2c1)C(=O)O	600	–
COC(=O)Nc1cc2oc3ccc(S(=O)(=O)N[C@H](C(=O)O)C(C)C)cc3c2cc1Br	> 25000	–
CC(C)[C@H](NS(=O)(=O)c1ccc2c(c1)oc1ccc(NC(=O)Oc3ccc(F)cc3)cc12)C(=O)O	200	–
CC(C)[C@H](NS(=O)(=O)c1ccc2c(c1)oc1cc(NC(=O)OCCF)ccc12)C(=O)O	97	–
